Reference: paper PMC9886271 (Drug metabolism and pharmacokinetics, 2022)
“Also recorded” adds a separate entry of the source. Where a name gives a salt, the structure may show the parent alone.

Legend:
[1] = Plasma pharmacokinetics after single i.v. injection; conditions: for AUC0–8h (metabolite) / Cmax (metabolite) / Tmax (metabolite): metabolite in plasma after 2.0 mg/kg i.v. of the parent drug
[2] = Tissue distribution after single i.v. injection; conditions: for Metabolite Tissue AUC0–8h, Brain / Metabolite Tissue AUC0–8h, Heart / Metabolite Tissue AUC0–8h, Kidney / Metabolite Tissue AUC0–8h, Liver / Metabolite Tissue AUC0–8h, Lung / Metabolite Tissue AUC0–8h, Spleen: after 2.0 mg/kg i.v. of the parent drug; for rank order of the extent of exposure of the organs to the metabolite: after i.v. parent drug; for rank order of the extent of exposure of the organs to the parent drug: i.v. administration
[3] = In vivo toxicity, Up-and-Down method, single i.v. dose via tail vein; conditions: male, CD-1, mouse, iv
[4] = system: mouse liver microsomes (MLM); conditions: MLM; for Vmax, best fit value: formation of EDDP/d6-EDDP, mean ± S.E.
[5] = male, CD-1, mouse, pH 7.4
Swiss mice = conditions: intraperitoneal (i.p.); cited from earlier work
[6] = system: postoperative mechanical hypersensitivity in mice; assay: Postoperative pain model; conditions: post-operative treatment, 3 mg/kg i.p., once daily for 4 days; for effect on postoperative mechanical hypersensitivity: 3 mg/kg
[7] = system: human liver microsomes (HLM); conditions: HLM; for Vmax, best fit value: formation of EDDP/d6-EDDP, mean ± S.E.
[8] = human, pH 7.4

SMILES	AUC0–8h (metabolite) [1]	Cmax (metabolite) [1]	Tmax (metabolite) [1]	Metabolite Tissue AUC0–8h, Brain [2]	Metabolite Tissue AUC0–8h, Heart [2]	Metabolite Tissue AUC0–8h, Kidney [2]	Metabolite Tissue AUC0–8h, Liver [2]	Metabolite Tissue AUC0–8h, Lung [2]	Metabolite Tissue AUC0–8h, Spleen [2]	rank order of the extent of exposure of the organs to the metabolite [2]	Vmax, best fit value [4]	effect on postoperative mechanical hypersensitivity [6]	rank order of the extent of exposure of the organs to the parent drug [2]	Vmax, best fit value [7]	further results
[2H]C([2H])([2H])C1CC(c2ccccc2)(c2ccccc2)C(=CC)N1C([2H])([2H])[2H] (stereo not drawn) [d6-EDDP]	138 ± 25 ng·h/mL	48 ± 7 ng/mL	19.8 ± 8.4 min	<LLOQ^§	1243 ± 254 ng·h/g	1562 ± 207 ng·h/g	4375 ± 513 ng·h/g	9886 ± 614 ng·h/g	411 ± 33 ng·h/g	lungs > liver > kidney ≈ heart > spleen					plasma AUC0–8h of d6-EDDP, fold lower than AUC0–8h of EDDP ([1]; after i.v. parent drug): 2 fold; plasma Cmax of d6-EDDP, fold lower than Cmax of EDDP ([1]; after i.v. parent drug): 5 fold; concentration of the metabolite in the brain ([2]; after 2.0 mg/kg i.v. d9-methadone, every time point): below the lower limit of quantification
CC=C1N(C)C(C)CC1(c1ccccc1)c1ccccc1 (stereo not drawn) [EDDP, 2-ethylidene-1,5-dimethyl-3,3,-diphenylpyrrolidine]	257 ± 29 ng·h/mL	233 ± 28 ng/mL	8.4 ± 6 min	8.96 ± 5.26 ng·h/g	2155 ± 144 ng·h/g	2815 ± 226 ng·h/g	5608 ± 218 ng·h/g	9672 ± 856 ng·h/g	622 ± 45 ng·h/g	lungs > liver > kidney ≈ heart > spleen					
CCC(=O)C(CC(C)N(C)C)(c1ccccc1)c1ccccc1 (racemic) [methadone, (±)-Methadone hydrochloride, reference compound]											2631 ± 121 pmol·min^−1·mg of protein^−1	completely ineffective	kidneys ≈ lungs > spleen > liver > heart > brain	1116 ± 17 pmol·min^−1·mg of protein^−1	LD50 at 20 min [3]: 11.6 mg/kg; Km at 10 min [5]: 53.5 ± 5.1 µM; LD50 (Swiss mice): 41 mg/kg; effect on postoperative mechanical hypersensitivity ([6]; listed as Methadone): unable to reduce the postoperative mechanical hypersensitivity; Km at 20 min [8]: 82.9 ± 3.7 µM
[2H]C([2H])([2H])CC(=O)C(CC(C)N(C([2H])([2H])[2H])C([2H])([2H])[2H])(c1ccccc1)c1ccccc1 (racemic) [d9-methadone, (±)-d9-methadone]											1033 ± 45 pmol·min^−1·mg of protein^−1	alleviated hypersensitivity after each systemic injection; also recorded: significantly relieved postoperative mechanical hypersensitivity	lungs > kidneys ≈ liver > spleen > heart > brain	438 ± 27 pmol·min^−1·mg of protein^−1	deuteration effect on Vmax (HVmax/DVmax) [4]: 2.5; development of analgesic tolerance [6]: no development of the apparent analgesic tolerance; deuteration effect on Vmax (HVmax/DVmax) [7]: 2.5
